Test results from US20090081194A1, “COMPOSITIONS AND METHODS FOR REDUCING RISK OF DEVELOPMENT, OR SEVERITY, OF INAPPROPRIATE IMMUNE RESPONSE IN EYES” (priority 2007, published 2009).

Columns and labels:
TLR9 [1] = target: T1, TLR9 (Homo sapiens, UniProt Q9NR96); details: Bhattacharjee et al. 2006; Macfarlane et al. 1998; cited from earlier work
T1 sequence (Q9NR96 26-1032): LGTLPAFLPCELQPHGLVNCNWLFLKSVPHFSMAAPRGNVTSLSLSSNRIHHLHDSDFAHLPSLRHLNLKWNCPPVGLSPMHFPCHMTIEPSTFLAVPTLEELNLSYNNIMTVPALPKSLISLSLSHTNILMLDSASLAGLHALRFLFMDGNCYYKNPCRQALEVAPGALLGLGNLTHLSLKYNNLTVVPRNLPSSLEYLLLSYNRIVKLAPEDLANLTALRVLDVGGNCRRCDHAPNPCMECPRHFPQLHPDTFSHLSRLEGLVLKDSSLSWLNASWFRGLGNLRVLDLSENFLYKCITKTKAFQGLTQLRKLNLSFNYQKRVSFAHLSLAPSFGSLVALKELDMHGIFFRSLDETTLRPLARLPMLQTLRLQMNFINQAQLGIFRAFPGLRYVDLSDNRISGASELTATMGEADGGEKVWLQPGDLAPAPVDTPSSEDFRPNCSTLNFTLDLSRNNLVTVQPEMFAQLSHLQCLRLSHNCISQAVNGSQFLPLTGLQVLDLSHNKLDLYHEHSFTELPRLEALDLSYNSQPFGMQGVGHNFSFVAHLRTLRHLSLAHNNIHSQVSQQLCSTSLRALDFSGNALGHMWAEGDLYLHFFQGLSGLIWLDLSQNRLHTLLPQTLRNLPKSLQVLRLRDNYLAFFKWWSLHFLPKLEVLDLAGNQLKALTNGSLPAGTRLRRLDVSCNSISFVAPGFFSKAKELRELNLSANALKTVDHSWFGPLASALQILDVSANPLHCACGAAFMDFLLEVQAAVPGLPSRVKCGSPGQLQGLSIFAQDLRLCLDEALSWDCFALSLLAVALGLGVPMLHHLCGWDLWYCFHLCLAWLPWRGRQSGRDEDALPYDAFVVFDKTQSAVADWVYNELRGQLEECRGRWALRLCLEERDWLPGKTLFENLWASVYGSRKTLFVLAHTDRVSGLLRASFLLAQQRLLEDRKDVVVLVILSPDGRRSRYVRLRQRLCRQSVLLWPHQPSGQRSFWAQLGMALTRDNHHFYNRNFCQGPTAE

[2] = system: HCEL, a human corneal epithelial cell line; assay: TLR ligand-induced CXCL8 (IL-8) release, HCEL cell line; type: cell-based; details: inhibitor 1 hour before, FIG. 7
Excerpt: (§1) Three human cell lines representative of immune responsive cells of the ocular surface (HCEL, a human corneal epithelial cell line representative of cells present on the ocular surface; HL-60, a neutrophil-like cell line representative of neutrophils present in the tear layer, especially in the closed eye; and U937, a macrophage cell line representative of dendritic cells of the cornea, especially of those at the limbus) were exposed to various concentrations of compositions of the present invention containing the inhibitory ODN TTAGGG (InvivoGen, San Diego, Calif.) and vitamin D (1α,25-Dihydroxyvitamin D3, Sigma-Aldrich, St. Louis, Mo.) and control compositions containing prednisolone (1,4-Pregnadiene-11β,17α,21-triol-3,20-dione, Sigma-Aldrich, St. Louis, Mo.) for 1 hour prior to activation by the TLR ligand Pam3Cys for 6 hour, flagellin (flagellin purified from Salmonella typhimurium, InvivoGen, San Diego, Calif.) for 24 hr, or the stimulatory CpG type B ODN 2006 (Invivogen, San Diego, Calif.) for 24 hours. After incubation at 37° C., supernates were collected for ELISA assay (R&D Systems, Minneapolis, Minn.) for the pro-inflammatory cytokine CXCL8 (“IL-8”). Both the inhibitory ODN TTAGGG and vitamin D inhibited cytokine response to TLR ligand activation of each cell line in an inhibitor-specific manner. […] Inhibition of the stimulatory ODN CpGB ODN 2006 was only tested with inhibitory ODN TTAGGG on U937 cells.

[3] = system: HL-60, a neutrophil-like cell line; assay: TLR ligand-induced CXCL8 (IL-8) release, HL-60 cell line; type: cell-based, human; details: inhibitor 1 hour before, FIG. 7
Excerpt: as §1

[4] = system: U937, a macrophage cell line; assay: TLR ligand-induced CXCL8 (IL-8) release, U937 cell line; type: cell-based, human; details: FIG. 7
Excerpt: as §1

TLR4 = details: monocytes; K. Sadeghi et al. 2006; cited from earlier work
TLR2 = details: monocytes; K. Sadeghi et al. 2006; cited from earlier work
TLR9 [5] = target: T1, TLR9; details: Gursel et al. 2003; Stunz et al. 2002; cited from earlier work
U937 cells = details: H. Mitsuzawa et al. 2006; cited from earlier work
NF-κB = details: LPS-elicited; H. Mitsuzawa et al. 2006; cited from earlier work
[6] = flagellin activation 24 hr, inhibitor 1 hour before

In the case of Nc1ccnc2ccccc12 [4-aminoquinoline], the “immunostimulatory action of CpG ODN” value (TLR9 [1]) is given as “block the immunostimulatory action of CpG ODN”.

In the case of Nc1c2ccccc2nc2ccccc12 [9-aminoacridine], the “immunostimulatory action of CpG ODN” value (TLR9 [1]) is listed as “block the immunostimulatory action of CpG ODN”.

With C[C@]12C=CC(=O)C=C1CC[C@@H]1[C@@H]2[C@@H](O)C[C@@]2(C)[C@H]1CC[C@]2(O)C(=O)CO [Prednisolone, 1,4-Pregnadiene-11β,17α,21-triol-3,20-dione] the “CXCL8 (IL-8) cytokine response” value ([2]; Pam3Cys activation 6 hour) was “inhibited”, the “CXCL8 (IL-8) cytokine response” value ([2]; flagellin activation 24 hr) was “inhibited” and the “CXCL8 (IL-8) cytokine response” value ([3]; Pam3Cys activation 6 hour) was “inhibited”. The “CXCL8 (IL-8) cytokine response” value ([3]; flagellin activation 24 hr) was “inhibited” and the “CXCL8 (IL-8) cytokine response” value [4, 6] was “inhibited”.

In the case of C=C1/C(=C\C=C2/CCC[C@]3(C)[C@@H]([C@H](C)CCCC(C)(C)O)CC[C@@H]23)C[C@@H](O)C[C@@H]1O [Vitamin D, 1α,25-Dihydroxyvitamin D3], the “CXCL8 (IL-8) cytokine response” value ([2]; Pam3Cys activation 6 hour) is reported as “reduced the cytokine response”, the “CXCL8 (IL-8) cytokine response” value ([3]; flagellin activation 24 hr) is reported as “reduced the cytokine response” and the “CXCL8 (IL-8) cytokine response” value [4, 6] is reported as “reduced the cytokine response”. For the same molecule, the “expression of TLR4” value (TLR4) was “diminishes the expression” and the “expression of TLR2” value (TLR2) was “diminishes the expression”.

In the case of CCN(CC)CCCC(C)Nc1ccnc2cc(Cl)ccc12 (stereo not drawn) [chloroquine], the “immunostimulatory action of CpG ODN” value (TLR9 [1]) is given as “block the immunostimulatory action of CpG ODN”.

For CCN(CCO)CCCC(C)Nc1ccnc2cc(Cl)ccc12 (stereo not drawn) [hydroxychloroquine], the “immunostimulatory action of CpG ODN” value (TLR9 [1]) is given as “block the immunostimulatory action of CpG ODN”.

In the case of CCN(CC)CCCC(C)Nc1c2ccc(Cl)cc2nc2ccc(OC)cc12 (stereo not drawn) [quinacrine], the “immunostimulatory action of CpG ODN” value (TLR9 [1]) is given as “block the immunostimulatory action of CpG ODN”.

With “TTAGGG (listed as Homo sapiens) [ODN TTTAGGG]” the “CXCL8 (IL-8) cytokine response” value ([2]; Pam3Cys activation 6 hour) was “reduced the cytokine response”, the “CXCL8 (IL-8) cytokine response” value ([3]; Pam3Cys activation 6 hour) was “reduced the cytokine response” and the “CXCL8 (IL-8) cytokine response” value ([4]; Pam3Cys activation 6 hour, inhibitor 1 hour before) was “reduced the cytokine response”. The “CXCL8 (IL-8) cytokine response” value ([4]; stimulatory CpG type B ODN 2006 activation 24 hours) was “reduced the cytokine response” and the “colocalization of CpG DNA with TLR9 within endosomal vesicles” value (TLR9 [5]) was “block the colocalization”.

In the case of “sTLR4: soluble form of a CD14-binding extracellular domain of TLR4”, the “LPS-elicited IL-8 release” value (U937 cells) is given as “effective in inhibiting” and the NF-κB activation (NF-κB) is given as “effective in inhibiting”.

B1: sMD-2: soluble form of MD-2 (protein, UniProt Q9Y6Y9 19-160, looked up)
Lymphocyte antigen 96: QKQYWVCNSSDASISYTYCDKMQYPISINVNPCIELKRSKGLLHIFYIPRRDLKQLYFNLYITVNTMNLPKRKEVICRGSDDDYSFCRALKGETVNTTISFSFKGIKFSKGKYKCVVEAISGSPEEMLFCLEFVILHQPNSN
For B1, the “LPS-elicited IL-8 release” value (U937 cells) is listed as “effective in inhibiting” and the NF-κB activation (NF-κB) is listed as “effective in inhibiting”.
